How the values were obtained:
RAW264.7 [1] = assay: Antiinflammatory activity in mouse RAW264.7 cells assessed as reduction in LPS-induced iNOS protein levels at 10 uM preincubated for 10 mins followed by LPS challenge for 16 hrs by Western blot analysis; format: functional; set-up: scale not given: the % may be the effect or the level left
RAW264.7 [2] = assay: Antiinflammatory activity in mouse RAW264.7 cells assessed as reduction in LPS-induced COX-2 protein levels at 10 uM preincubated for 10 mins followed by LPS challenge for 16 hrs by Western blot analysis; format: functional; set-up: scale not given: the % may be the effect or the level left

| Compound | Activity (RAW264.7 [1]) | Activity (RAW264.7 [2]) |
| --- | --- | --- |
| CC(=O)OCC[C@]1(C)[C@@H]([C@H](C)CC[C@H](C)C(C)C)CC[C@H]1C1=C[C@H](O)[C@@]2(O)C[C@@H](O)CC[C@]2(C)C1=O | 33.2% | 54% |
| CC(C)[C@@H](C)/C=C/[C@@H](C)[C@H]1CC[C@H]2C3=C(CC[C@]12C)[C@@]1(C)CC[C@H](O)C[C@]12O[C@@H]2[C@@H]3O | 41.1% | 54% |
| C[C@@H]1C[C@H]2[C@@H]3CCC4=CC(=O)C=C[C@]4(C)[C@@]3(F)[C@@H](O)C[C@]2(C)[C@@]1(O)C(=O)CO [DEXAMETHASONE] | 9.6% | 1.7% |
